Assay results published in article PMC7251097, “Aspartate/asparagine-β-hydroxylase: a high-throughput mass spectrometric assay for discovery of small molecule inhibitors” (Scientific Reports, 2020).
Where a name gives a salt, the structure may show the parent alone. Read-outs that look alike come from different tables or passages of the source.

Target: T1, His6-AspH315–758 (human aspartate/asparagine-β-hydroxylase, AspH) (Homo sapiens, UniProt Q12797)
T1 construct: N-Terminally His6-tagged human AspH315–758 (His6-AspH315–758) was produced in E. coli BL21 (DE3) cells; made in house; host or cells: E. coli BL21 (DE3), pET-28a(+) vector
T1 sequence (Q12797 315-758): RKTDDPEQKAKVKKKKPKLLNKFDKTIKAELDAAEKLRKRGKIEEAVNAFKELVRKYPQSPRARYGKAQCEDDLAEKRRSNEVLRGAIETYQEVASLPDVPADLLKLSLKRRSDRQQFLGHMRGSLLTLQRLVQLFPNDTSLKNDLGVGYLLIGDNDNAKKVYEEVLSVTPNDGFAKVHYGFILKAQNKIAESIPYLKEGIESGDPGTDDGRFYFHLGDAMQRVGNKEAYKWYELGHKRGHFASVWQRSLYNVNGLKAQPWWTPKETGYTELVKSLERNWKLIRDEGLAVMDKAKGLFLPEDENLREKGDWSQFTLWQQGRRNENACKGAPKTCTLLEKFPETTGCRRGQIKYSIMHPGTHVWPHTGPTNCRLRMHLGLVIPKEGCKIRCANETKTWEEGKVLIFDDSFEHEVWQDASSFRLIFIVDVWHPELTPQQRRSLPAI
Test: SPE-MS AspH inhibition assay (LOPAC screen at fixed 20 μM and IC50 dose-response), hydroxylation of cyclic peptide hFX-CP101–119
Format: biochemical

[1] = LOPAC compound at 20uM, conversion of substrate peptide
[2] = LOPAC compound at 20uM, plate 2, normalised to DMSO and 2,4-PDCA controls
[3] = LOPAC compound at 20uM, plate 2, conversion of substrate peptide
[4] = LOPAC Plate 4, compound at 20 uM
[5] = LOPAC Plate 4, compound at 20 uM, substrate conversion
[6] = LOPAC Plate 4, compound at 20 uM, read-out: % inhibition

C[C@@]1(C2CCCC2)Cc2cc(OCC(=O)O)c(Cl)c(Cl)c2C1=O [R(+)-IAA-94]
Plate 3 (% conversion) [1]: 30.54%

CN1CCc2cc(Cl)c(O)cc2[C@@H](c2ccccc2)C1.Cl [R(+)-SCH-23390 hydrochloride]
Plate 2 (% inhibition) [2]: -3.60%

CC(C)NC[C@H](O)c1ccc(O)c(O)c1.O=C(O)C(O)C(O)C(=O)O [R(-)-Isoproterenol (+)-bitartrate]
Plate 2 (% conversion) [3]: 5.85% | Plate 2 (% inhibition) [2]: 89.92%

CCCN1CCc2cccc3c2[C@H]1Cc1ccc(O)c(O)c1-3.Cl [R(-)-Propylnorapomorphine hydrochloride]
Plate 2 (% conversion): 7.83% | Plate 2 (% inhibition) (20 µM): 84.00%

Br.CCCN(CCC)[C@@H]1CCc2cccc(O)c2C1 [R-(+)-8-Hydroxy-DPAT hydrobromide]
Plate 2 (% conversion): 39.31% | Plate 2 (% inhibition) [2]: -10.03%

C#CCN[C@H](C)Cc1ccccc1.Cl [R-(-)-Desmethyldeprenyl hydrochloride]
Plate 2 (% conversion): 39.05% | Plate 2 (% inhibition) (20 µM): -9.24%

COC1(C2=NCCN2)COc2ccccc2O1.Cl (stereo not drawn) [RX 821002 hydrochloride]
% inhibition [4]: -13.78% | % conversion [5]: 41.17%

O=C(c1ccc(OCCN2CCCCC2)cc1)c1c(-c2ccc(O)cc2)sc2cc(O)ccc12 [Raloxifene hydrochloride]
% conversion [5]: 40.15% | inhibition at 20 µM [6]: -10.8%

CNC(=C[N+](=O)[O-])NCCSCc1ccc(CN(C)C)o1 [Ranitidine hydrochloride]
% conversion [5]: 37.20% | inhibition at 20 µM [6]: -2.13%

COc1ccccc1OCC(O)CN1CCN(CC(=O)Nc2c(C)cccc2C)CC1 (stereo not drawn) [Ranolazine dihydrochloride]
% conversion [5]: 41.52% | inhibition at 20 µM [6]: -14.8%

Nc1c(S(=O)(=O)O)cc(Nc2ccc(Nc3nc(Cl)nc(Nc4cccc(S(=O)(=O)O)c4)n3)c(S(=O)(=O)O)c2)c2c1C(=O)c1ccccc1C2=O [Reactive Blue 2, reference compound]
% conversion: 3.94% | inhibition at 20 µM: 95.3% | inhibition at 20 µM (read-out: Inhibition at 20 µM [%]): 95.3%

Cc1cccc(-c2[nH]ncc2-c2ccc3ncccc3n2)n1 [RepSox]
Plate 2 (% conversion): 40.48% | Plate 2 (% inhibition) (20 µM): -13.51%

COC(=O)[C@H]1[C@H]2C[C@@H]3c4[nH]c5cc(OC)ccc5c4CCN3C[C@H]2C[C@@H](OC(=O)c2cc(OC)c(OC)c(OC)c2)[C@@H]1OC [Reserpine]
Plate 1 (% inhibition) (LOPAC compound at fixed 20 uM, plate 1, normalised to DMSO and 2,4-PDCA controls): -13.78% | Plate 1 (% conversion) (LOPAC compound at fixed 20 uM, substrate conversion, plate 1): 40.50%

Oc1ccc(/C=C/c2cc(O)cc(O)c2)cc1 [Resveratrol]
% conversion [5]: 34.33%

CC1=C(/C=C/C(C)=C/C=C/C(C)=C/C(=O)Nc2ccc(O)cc2)C(C)(C)CCC1 [Retinoic acid p-hydroxyanilide]
Plate 2 (% conversion) [3]: 25.03% | Plate 2 (% inhibition) [2]: 32.63%

CC1=C(/C=C/C(C)=C/C=C/C(C)=C/C(=O)O)C(C)(C)CCC1 [Retinoic acid]
% conversion [5]: 30.58% | inhibition at 20 µM [6]: 17.2%

NC(=O)c1ncn([C@@H]2O[C@H](CO)[C@@H](O)[C@H]2O)n1 [Ribavirin]
% conversion [5]: 38.92% | inhibition at 20 µM [6]: -7.18%

C1COC(NC(C2CC2)C2CC2)=N1 [Rilmenidine hemifumarate]
% conversion [5]: 24.79%

Nc1nc2ccc(OC(F)(F)F)cc2s1 [Riluzole]
% conversion [5]: 38.21% | inhibition at 20 µM [6]: -5.09%

Cc1nc2sccn2c(=O)c1CCN1CCC(=C(c2ccc(F)cc2)c2ccc(F)cc2)CC1 [Ritanserin]
% conversion [5]: 37.56%

CC(NCCc1ccc(O)cc1)C(O)c1ccc(O)cc1 (stereo not drawn) [Ritodrine hydrochloride]
% conversion [5]: 37.24% | inhibition at 20 µM [6]: -2.24%

CN(C)CCc1c[nH]c2ccc(Cn3cncn3)cc12.O=C(O)c1ccccc1 [Rizatriptan benzoate salt]
Plate 3 (% conversion) [1]: 37.82%

CNc1cc(NS(=O)(=O)c2ccc(N)cc2)nc(NC)n1.Cl.Cl [Ro 04-6790 dihydrochloride]
% inhibition [4]: 35.85% | % conversion [5]: 24.24%

O=C(c1cc(O)c(O)c([N+](=O)[O-])c1)c1ccccc1F [Ro 41-0960, reference compound]
% inhibition [4]: 97.80% | % conversion [5]: 3.09%

COc1ccc(C2CNC(=O)C2)cc1OC1CCCC1 (stereo not drawn) [Rolipram]
% conversion [5]: 37.72% | inhibition at 20 µM [6]: -3.65%

CCCN(CCC)CCc1cccc2c1CC(=O)N2 [Ropinirole hydrochloride]
% conversion: 31.94%

CC[C@H](CO)Nc1nc(NCc2ccccc2)c2ncn(C(C)C)c2n1 [Roscovitine]
Plate 1 (% conversion): 40.73% | Plate 1 (% inhibition): -14.45%
